From patent publication EP3421457B1, “PYRIMIDINE FGFR4 INHIBITORS” (priority 2013, dated 2015)
Read-outs that look alike come from different tables or passages of the source. Each block holds one compound with its values, some of them ahead of it.

How the values were obtained:
Hep3B cells = type: in vivo; conditions: Hep3B xenograft; for efficacy (tumor volume): FIG. 4
FGFR4 = biological target: T1, FGFR4 (Homo sapiens, UniProt P22455); experiment: IC50 Profiling of Kinase Activity Inhibition (Kinase HotSpot assay); type: biochemical; conditions: Table 1
T1 construct: purchased Invitrogen
T1 sequence (P22455 22-802): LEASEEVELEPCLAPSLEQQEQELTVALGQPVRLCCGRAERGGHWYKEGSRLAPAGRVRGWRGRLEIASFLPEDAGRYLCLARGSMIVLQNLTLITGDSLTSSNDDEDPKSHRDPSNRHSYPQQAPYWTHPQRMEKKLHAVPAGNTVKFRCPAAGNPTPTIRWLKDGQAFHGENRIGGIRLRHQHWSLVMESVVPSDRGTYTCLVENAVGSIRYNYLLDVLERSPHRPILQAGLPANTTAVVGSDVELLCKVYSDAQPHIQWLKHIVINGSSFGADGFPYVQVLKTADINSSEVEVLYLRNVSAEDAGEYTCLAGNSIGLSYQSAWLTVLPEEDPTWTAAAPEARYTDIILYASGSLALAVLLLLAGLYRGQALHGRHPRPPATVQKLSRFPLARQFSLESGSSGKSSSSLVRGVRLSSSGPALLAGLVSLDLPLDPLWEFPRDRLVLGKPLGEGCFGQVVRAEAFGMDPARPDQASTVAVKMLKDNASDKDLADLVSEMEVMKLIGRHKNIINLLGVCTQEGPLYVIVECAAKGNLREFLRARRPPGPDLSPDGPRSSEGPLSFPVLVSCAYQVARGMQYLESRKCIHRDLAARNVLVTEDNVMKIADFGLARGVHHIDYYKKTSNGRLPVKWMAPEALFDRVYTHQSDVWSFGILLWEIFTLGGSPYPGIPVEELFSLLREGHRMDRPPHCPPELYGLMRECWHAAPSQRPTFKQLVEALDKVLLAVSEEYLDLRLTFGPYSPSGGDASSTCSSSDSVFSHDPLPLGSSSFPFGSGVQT

FGFR1 = biological target: T2, FGFR1 (Homo sapiens, UniProt P11362); experiment: as above; type: biochemical; conditions: Table 1
T2 construct: purchased Invitrogen
T2 sequence (P11362 22-822): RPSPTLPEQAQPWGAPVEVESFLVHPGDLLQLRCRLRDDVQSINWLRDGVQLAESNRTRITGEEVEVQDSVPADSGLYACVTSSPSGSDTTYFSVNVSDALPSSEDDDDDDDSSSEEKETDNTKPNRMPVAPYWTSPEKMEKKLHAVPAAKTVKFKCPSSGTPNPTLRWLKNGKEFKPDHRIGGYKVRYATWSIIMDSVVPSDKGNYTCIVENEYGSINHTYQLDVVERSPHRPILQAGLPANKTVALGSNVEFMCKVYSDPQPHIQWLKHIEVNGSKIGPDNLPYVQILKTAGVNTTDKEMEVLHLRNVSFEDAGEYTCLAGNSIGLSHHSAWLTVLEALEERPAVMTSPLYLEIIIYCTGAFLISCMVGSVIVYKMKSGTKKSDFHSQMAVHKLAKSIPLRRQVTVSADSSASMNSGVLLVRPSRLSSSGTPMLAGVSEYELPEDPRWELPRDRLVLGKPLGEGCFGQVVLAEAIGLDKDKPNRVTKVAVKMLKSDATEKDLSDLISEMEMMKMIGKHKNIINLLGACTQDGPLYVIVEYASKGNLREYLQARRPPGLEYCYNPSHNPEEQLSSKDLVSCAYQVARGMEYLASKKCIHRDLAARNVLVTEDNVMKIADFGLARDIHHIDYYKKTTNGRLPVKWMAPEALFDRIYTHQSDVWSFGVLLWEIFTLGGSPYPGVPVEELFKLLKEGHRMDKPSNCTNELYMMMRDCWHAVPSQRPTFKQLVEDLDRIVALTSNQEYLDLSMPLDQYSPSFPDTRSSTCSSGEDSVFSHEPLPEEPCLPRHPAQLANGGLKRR

HEPG2 = experiment: Cellular Viability assay to obtain GI50 (CellTiter-Glo); type: cell-based; conditions: Homo sapiens; HEPG2, 72h, FGF19 non-amplified
HUH7 = experiment: as above; type: cell-based; conditions: Homo sapiens, Huh-7; HUH7, 72h, FGF19 amplified line
JHH7 = experiment: as above; type: cell-based; conditions: Homo sapiens; JHH7, 72h, FGF19 amplified line
HEP3B = experiment: as above; type: cell-based; conditions: Homo sapiens, 72h, FGF19 amplified line

SMILES: C=CC(=O)Nc1cc(N2CCN(CC)CC2)ccc1Nc1cc(N(C)C(=O)Nc2c(Cl)c(OC)cc(OC)c2Cl)ncn1 [Compound 108, N-(2-(6-(3-(2,6-Dichloro-3,5-dimethoxyphenyl)-1-methylureido)pyrimidin-4-ylamino)-5-(4-ethylpiperazin-1-yl)phenyl)acrylamide]
efficacy (tumor volume) (Hep3B cells; dosed for 18 days, Compound 108 versus BGJ398): more efficacious than BGJ398 at tolerable dosage levels

IC50 (FGFR4): 673 nM
IC50 (FGFR1): > 10 µM
SMILES: C=CC(=O)Nc1ccccc1Nc1cc(N(C)C(=O)Nc2cccc(OC)c2Cl)ncn1 [Compound 103]

IC50 (FGFR4): 201 nM
IC50 (FGFR1): > 10 µM
SMILES: C=CC(=O)Nc1ccccc1Nc1cc(N(C)C(=O)Nc2cc(OC)cc(OC)c2Cl)ncn1 [Compound 105]

SMILES: CCN1CCN(c2ccc(Nc3cc(N(C)C(=O)Nc4c(Cl)c(OC)cc(OC)c4Cl)ncn3)cc2)CC1 [BGJ398]
GI50 (HEPG2): 2260 ± 1180 nM
efficacy (tumor volume) (Hep3B cells; BGJ398 at 60mg/kg): efficacy comparable to compound 108
toxicity (health of animals) (Hep3B cells; BGJ398 at 60mg/kg): terminated on Day 11 due to poor health of animals
toxicity (health of animals) (Hep3B cells; dosed orally with BGJ398 at 30mg/kg): did not exhibit poor health
GI50 (HUH7): 231 ± 100 nM
GI50 (JHH7): 178 ± 30 nM
GI50 (HEP3B): 74 ± 23 nM
